From patent US10344026B2, “Compositions and methods of targeting mutant K-ras” (NANTBIO, INC., priority 2017, dated 2019) come the findings set out here.

Holding throughout (type): cell-based
One experiment has as its system Panc10.05-G12D. The experiment is described as follows: Viability assay (CellTiterBlue, 72 hr) Panc10.05. The following applies: Homo sapiens, Panc1005, GI50, CellTiterBlue, Panc10.05 K-Ras G12D, read-out: 72 hr Cell Viability Panc10.05 (G12D). In short, it runs like this:
(§1)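 Each line was plated at 1000 cells per well and incubated for 72 hr with compound after an 18 hr settling period. CellTiterBlue fluorescence measured the result, and GI50 was fitted relative to DMSO and tamoxifen controls.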
For orientation: Alamar Blue is a resazurin reagent that responds to reducing activity.

Experiment [1] has as its system phospho-Akt in Panc1 (G12D). The experiment can be described thus: In-Cell Western phospho-Akt, Panc1. The following applies: Homo sapiens, PANC-1, 1 h; Panc1, one hour treatment; read-out: In-Cell Western Panc1 (G12D) Akt (P). In short, it runs like this:
(§2)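 3000 cells/well, 18 hr pre-incubation; 1 hr compound exposure, 0.5% DMSO final. Formaldehyde fix, Triton permeabilization, primary Ab overnight 4° C, secondary 2 hr. Fluorescence imaging; EC50.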

For another experiment, the target named is T1, K-Ras G12D (Homo sapiens, UniProt P01116, G12D).
T1 construct: expressed in transfected cells; host or cells: 293H cells
T1 sequence (P01116 whole entry G12D): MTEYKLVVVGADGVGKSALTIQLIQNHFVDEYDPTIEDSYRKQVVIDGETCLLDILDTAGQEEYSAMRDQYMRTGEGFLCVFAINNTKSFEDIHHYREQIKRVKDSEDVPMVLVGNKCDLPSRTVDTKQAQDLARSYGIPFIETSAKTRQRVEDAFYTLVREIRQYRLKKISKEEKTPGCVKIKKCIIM
The experiment is described as follows: G-LISA Ras activation, 293H cells transfected with G12D mutant. The following applies: compound 1 hour. In short, it runs like this:
(§3)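 293H cells transfected with 5 μg Ras wild-type or mutant plasmid (Lipofectamine 3000); next day treated with 3.125-25 μM compound for 1 h. Wild-type-transfected cells then stimulated with 100 ng/ml EGF for 2 min. Active Ras measured by G-LISA in ice-cold lysates.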

The next experiment deals with T2, K-Ras G12V (Homo sapiens, UniProt P01116, G12V).
T2 construct: expressed in transfected cells; host or cells: 293H cells
T2 sequence (P01116 whole entry G12V): as the sequence (P01116 whole entry G12D) above, with D12V counted along it
The experiment is described as follows: G-LISA Ras activation, 293H cells transfected with G12V mutant. The note with it: compound 1 hour. The procedure:
293H cells were seeded in 6-wells at 0.6×10^6 cells per well and transfected next day with 5 μg of Ras wild-type, or G12C, G12D or G12V mutant DNA plasmid vector using transfection reagent Lipofectamine 3000. Next day cells were treated with 3.125-25 μM of Ras compounds for 1 hour. Wild-type transfected cells were subsequently treated with 100 ng/ml EGF for 2 minutes. Cells were washed once in ice-cold PBS, lysed in complete lysis buffer on ice, and processed by G-LISA according to Cytoskeleton protocol.

For experiment [2], the system named is Ishikawa (K-Ras wild type cell line). The experiment can be described thus: Viability assay (CellTiterBlue, 72 hr) Ishikawa. The following applies: Homo sapiens, GI50, CellTiterBlue, Ishikawa K-Ras wild-type. In short, it runs like this:
as §1

The test system of a further experiment is HCT116-G31D. The experiment can be described thus: Viability assay (CellTiterBlue, 72 hr) HCT116. The following applies: Homo sapiens, HCT-116, GI50, CellTiterBlue, HCT116 K-Ras G13D, read-out: 72 hr Cell Viability HCT116 (G13D). In short, it runs like this:
as §1

The subject of a further experiment is Panc1-G12D. The experiment is described as follows: Viability assay (CellTiterBlue, 72 hr) Panc1. The following applies: Homo sapiens, PANC-1, GI50, CellTiterBlue, Panc1 K-Ras G12D, read-out: 72 hr Cell Viability Panc1 (G12D). The gist of the method:
as §1

In experiment [3] the test system is phospho-Akt in Panc10.05 (G12D). The experiment is described as follows: In-Cell Western phospho-Akt, Panc10.05. The following applies: Homo sapiens, Panc1005, 1 h; Panc10.05, one hour treatment; read-out: In-Cell Western Panc10.05 (G12D) Akt (P). The gist of the method: as §2
For another experiment, the target named is T3, wild type K-Ras (Homo sapiens, UniProt P01116).
T3 construct: expressed in transfected cells; host or cells: 293H cells
T3 sequence (P01116 whole entry): as the sequence (P01116 whole entry G12D) above, with D12G counted along it
The experiment can be described thus: G-LISA Ras activation, 293H cells transfected with Ras wild-type, EGF stimulated. The note with it: compound 1 hour, then 100 ng/ml EGF 2 minutes. The gist of the method: as §3

In experiment [4] the test system is U87-MG (K-Ras wild type cell line). The experiment can be described thus: Viability assay (CellTiterBlue, 72 hr) U87-MG. The note with it: Homo sapiens, U-87 MG, GI50, CellTiterBlue, U87-MG K-Ras wild-type. In short, it runs like this:
as §1

Experiment [5] concerns phospho-ERK in HCC827 (Wild-type). The experiment can be described thus: In-Cell Western phospho-ERK, HCC827. The note with it: Homo sapiens, 1 h; HCC827, one hour treatment; read-out: In-Cell Western HCC827 (Wild-type) Erk (P). The gist of the method:
as §2

In experiment [6] the test system is HCC827 (K-Ras wild type cell line). The experiment is described as follows: Viability assay (CellTiterBlue, 72 hr) HCC827. The following applies: Homo sapiens, GI50, CellTiterBlue, HCC827 K-Ras wild-type. The gist of the method:
as §1

Experiment [7] has as its system phospho-ERK in Panc10.05 (G12D). The experiment is described as follows: In-Cell Western phospho-ERK, Panc10.05. The following applies: Homo sapiens, Panc1005, 1 h; Panc10.05, one hour treatment; read-out: In-Cell Western Panc10.05 (G12D) Erk (P). The gist of the method: as §2
Experiment [8] deals with phospho-ERK in Panc1 (G12D). The experiment is described as follows: In-Cell Western phospho-ERK, Panc1. The following applies: Homo sapiens, PANC-1, 1 h; Panc1, one hour treatment; read-out: In-Cell Western Panc1 (G12D) Erk (P). In short, it runs like this: as §2
Experiment [9] relates to phospho-Akt in HCC827 (Wild-type). The experiment can be described thus: In-Cell Western phospho-Akt, HCC827. The note with it: Homo sapiens, 1 h; HCC827, one hour treatment; read-out: In-Cell Western HCC827 (Wild-type) Akt (P). In short, it runs like this:
as §2

The subject of experiment [10] is phospho-Akt in A375 (Wild-type). The experiment is described as follows: In-Cell Western phospho-Akt, A375. The following applies: Homo sapiens, A-375, 1 h; A375, one hour treatment; read-out: In-Cell Western A375 (Wild-type) Akt (P). In short, it runs like this: as §2
The test system of experiment [11] is phospho-ERK in A375 (Wild-type). The experiment is described as follows: In-Cell Western phospho-ERK, A375. The following applies: Homo sapiens, A-375, 1 h; A375, one hour treatment; read-out: In-Cell Western A375 (Wild-type) Erk (P). The gist of the method: as §2
The subject of experiment [12] is A375 (K-Ras wild type cell line). The experiment can be described thus: Viability assay (CellTiterBlue, 72 hr) A375. The note with it: Homo sapiens, A-375, GI50, CellTiterBlue. In short, it runs like this: as §1

As to `Cc1nc(C2CC2)oc1C(=O)Nc1nc(-c2ccc3c(c2)CCC(=O)N3Cc2ccccc2)cs1` [Compound 58, N-(4-(1-benzyl-2-oxo-1,2,3,4-tetrahydroquinolin-6-yl)thiazol-2-yl)-2-cyclopropyl-4-methyloxazole-5-carboxamide], the IC50 with Panc10.05-G12D turned out to be 3.4 µM; at K-Ras G12D, 5.2 µM; at K-Ras G12V, 21.6 µM; in [2], 2.3 µM; in the experiment with HCT116-G31D, 4 µM; in the experiment on Panc1-G12D, 1.7 µM. Besides, the IC50 worked out at 20.4 µM at wild type K-Ras and 4 µM in [4]. Moreover, the EC50 in experiment [1] came out at 6 µM; in experiment [3] it was 3 µM.

Take `Cc1nc(C)c(C(=O)Nc2nc(-c3ccc4c(c3)CCC(=O)N4CC3CCCOC3)cs2)o1` (stereo not drawn) [Compound 66, 2,4-dimethyl-N-(4-(2-oxo-1-((tetrahydro-2H-pyran-3-yl)methyl)-1,2,3,4-tetrahydroquinolin-6-yl)thiazol-2-yl)oxazole-5-carboxamide]: the IC50 in the experiment on Panc10.05-G12D came to 2 µM; at K-Ras G12D, 4.5 µM; in [6], 4 µM; at K-Ras G12V, 6.5 µM; in experiment [2], 2 µM; in the experiment with HCT116-G31D it was 3 µM. For the same molecule, the IC50 with Panc1-G12D came to 6 µM; against wild type K-Ras, 11.1 µM. Besides, the EC50 in [1] is 2 µM; in experiment [5] it was 4 µM; in experiment [7] it was 3 µM; in experiment [3] it was 18 µM; in [8] it was 3 µM; in experiment [9], 15 µM.

Consider `Cc1nc(C(C)C)oc1C(=O)Nc1nc(-c2ccc3c(c2)CCC(=O)N3)cs1` [Compound 7, 2-isopropyl-4-methyl-N-(4-(2-oxo-1,2,3,4-tetrahydroquinolin-6-yl)thiazol-2-yl)oxazole-5-carboxamide], for which the IC50 with Panc10.05-G12D was 2 µM; on K-Ras G12D it was 4.8 µM; in experiment [6] it was above 25 µM; at K-Ras G12V, above 25 µM; in experiment [2] it was above 25 µM; in the experiment with HCT116-G31D, above 25 µM. Also, the IC50 is 8 µM with Panc1-G12D, above 25 µM in [12], 11.7 µM on wild type K-Ras and above 25 µM in experiment [4]. Also, the EC50 was above 25 µM in experiment [1]; above 25 µM in [10]; above 25 µM in [5]; 4 µM in [7]; above 25 µM in experiment [11]; 8 µM in [3]. In addition, in experiment [8], the EC50 was above 25 µM.

Regarding `Cc1nc(C2CC2)oc1C(=O)Nc1nc(-c2ccc3c(c2)CCC(=O)N3)cs1` [Compound 6, 2-cyclopropyl-4-methyl-N-(4-(2-oxo-1,2,3,4-tetrahydroquinolin-6-yl)thiazol-2-yl)oxazole-5-carboxamide], the IC50 was 3.6 µM with Panc10.05-G12D; 7.3 µM against K-Ras G12D; 19.4 µM against K-Ras G12V; 10 µM in experiment [2]; above 25 µM in the experiment with HCT116-G31D; 2.4 µM in the experiment with Panc1-G12D. Also, the values for the IC50 (on wild type K-Ras; in experiment [4]) were 10.6 µM and 5 µM, respectively. Also, the EC50 worked out at 2 µM in experiment [7], 3 µM in experiment [3] and 4 µM in experiment [8].

On to `Cc1nc(C2CCC2)oc1C(=O)Nc1nc(-c2ccc3c(c2)CCC(=O)N3)cs1` [Compound 8, 2-cyclobutyl-4-methyl-N-(4-(2-oxo-1,2,3,4-tetrahydroquinolin-6-yl)thiazol-2-yl)oxazole-5-carboxamide], for which the IC50 in the experiment with Panc10.05-G12D is 1.3 µM; against K-Ras G12D, 5.9 µM; in experiment [6] it was above 25 µM; on K-Ras G12V, above 25 µM; in [2] it was above 25 µM; in the experiment with HCT116-G31D, above 25 µM. In addition, the IC50 in the experiment with Panc1-G12D came to 17 µM; at wild type K-Ras, 15.5 µM. In addition, the EC50 was above 25 µM in [1]; above 25 µM in experiment [10]; above 25 µM in experiment [5]; 2 µM in experiment [7]; above 25 µM in [11]; 6 µM in experiment [3]. In addition, the EC50 in [8] is above 25 µM.

In the case of `CCc1nc(C)c(C(=O)Nc2nc(-c3ccc4c(c3)CCC(=O)N4Cc3ccccn3)cs2)o1` [Compound 63, 2-ethyl-4-methyl-N-(4-(2-oxo-1-(pyridin-2-ylmethyl)-1,2,3,4-tetrahydroquinolin-6-yl)thiazol-2-yl)oxazole-5-carboxamide], the IC50 in the experiment with Panc10.05-G12D was 2 µM; against K-Ras G12D it was 5.6 µM; in [6], 5 µM; on K-Ras G12V, 9.8 µM; in experiment [2], 4 µM; with HCT116-G31D, 4 µM. Further, the IC50 in the experiment on Panc1-G12D is 5 µM; at wild type K-Ras, above 25 µM; in [4], 1.5 µM. The EC50 in experiment [1] was 4 µM; in [5], 6 µM; in experiment [7] it was 7 µM; in experiment [3], above 25 µM; in experiment [8] it was 3 µM; in experiment [9], 10 µM.

As for `CCc1nc(C)c(C(=O)Nc2nc(-c3ccc4c(c3)CCC(=O)N4Cc3cccnc3)cs2)o1` [Compound 64, 2-ethyl-4-methyl-N-(4-(2-oxo-1-(pyridin-3-ylmethyl)-1,2,3,4-tetrahydroquinolin-6-yl)thiazol-2-yl)oxazole-5-carboxamide], the IC50 with Panc10.05-G12D was 2 µM; against K-Ras G12D, 3 µM; in experiment [6], 10 µM; against K-Ras G12V, 9.6 µM; in experiment [2], 3.5 µM; with HCT116-G31D it was 5 µM. Also, the values for the IC50 (with Panc1-G12D; on wild type K-Ras; in [4]) were 5 µM, above 25 µM and 2 µM, respectively. The EC50 in [1] was 6 µM; in experiment [5], 7 µM; in [7], 9 µM; in [3], above 25 µM; in [8], 5 µM; in experiment [9] it was 15 µM.

Take `CCn1nc(C)c(C(=O)Nc2nc(-c3ccc4c(c3)CCC(=O)N4CCOC)cs2)c1C` [Compound 119, 1-ethyl-N-(4-(1-(2-methoxyethyl)-2-oxo-1,2,3,4-tetrahydroquinolin-6-yl)thiazol-2-yl)-3,5-dimethyl-1H-pyrazole-4-carboxamide]: the IC50 with Panc10.05-G12D stood at 0.71 µM; at K-Ras G12D, 2.6 µM; in experiment [6], 2 µM; in [2], 3 µM; in the experiment on HCT116-G31D it was 16 µM; with Panc1-G12D it was 2 µM. For the same molecule, the IC50 in [12] amounted to 8 µM; against wild type K-Ras it was 5.4 µM; in [4], 6 µM. Also, the EC50 in experiment [1] turned out to be 19 µM; in experiment [10], 12 µM; in [5], 1.1 µM; in experiment [7] it was 0.759 µM; in experiment [11] it was 8 µM; in experiment [3], 1.5 µM. In addition, the values for the EC50 in experiment [8] and in [9] were 3 µM and above 25 µM, respectively.
